Reference: US8293729B2 (Boehringer Ingelheim International GmbH, priority 2009, dated 2012)
Read-outs that look alike come from different tables or passages of the source.

How the values were obtained:
[1] = target: T1, human GPR119 receptor (Homo sapiens, UniProt Q8TDV5, S329A/T327A); assay: cAMP assay (LANCE cAMP-384) in HEK293 cells stably expressing mutant human GPR119 receptor; type: cell-based
T1 construct: N-terminal leader […]; expressed in transfected cells
T1 sequence (Q8TDV5 with tags, fused parts or gaps T327A/S329A): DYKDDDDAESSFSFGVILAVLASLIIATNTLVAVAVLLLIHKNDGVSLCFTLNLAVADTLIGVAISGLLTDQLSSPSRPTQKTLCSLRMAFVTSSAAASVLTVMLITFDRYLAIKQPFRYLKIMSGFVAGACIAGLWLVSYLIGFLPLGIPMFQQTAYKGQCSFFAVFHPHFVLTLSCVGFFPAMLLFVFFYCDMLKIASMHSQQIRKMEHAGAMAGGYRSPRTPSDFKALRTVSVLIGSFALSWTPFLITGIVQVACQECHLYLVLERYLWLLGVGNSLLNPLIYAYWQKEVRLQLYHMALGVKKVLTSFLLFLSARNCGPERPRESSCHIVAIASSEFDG
How it was run: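 HEK293 cells stably expressing human GPR119 (T327A/S329A, modified N-terminus), 1000 cells/well, exposed to compound for 20 min at 37° C. cAMP quantified by LANCE TR-FRET against a standard curve; EC50 from 12 points, 30 μM to 100 pM, or % stimulation at 10 μM.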

[2] = test system: male ZDF rats; assay: In vivo OGTT (oral glucose tolerance test) in Sprague Dawley or Zucker Diabetic Fatty rats; set-up: species or system rat; details: nine week old male ZDF rats, 30 mg/kg p.o. 30 minutes prior to glucose bolus, 2 hrs post glucose bolus
Experimental: Nine to 13 week old Male Sprague Dawley rats weighing 250 g-350 g or 9 week old male Zucker Diabetic Fatty rats weighing 300 g-450 g were fasted overnight for 16 hours. At time zero, blood was collected using the tail-nick method and glucose was measured with a glucometer (Bayer HealthCare) Animals then immediately received either vehicle (80% Labrasol, Gattefossé, France) or 3, 10, or 30 mg/kg GPR119 agonist (p.o., volume 2 mL/kg). Thirty minutes later blood glucose was again measured preceding the administration of a glucose bolus (p.o. 2 g/kg, volume 6 mL/kg). Blood glucose was then determined at 10, 20, 30, 60, 90, 120, and 180 minutes post glucose bolus or 20, 40, 60, 80, 100, and 120 minutes past glucose bolus.
Nine week old male ZDF rats were dosed with either 30 mg/kg of Compound 2-35 or 30 mg/kg of Compound 8-1 30 minutes prior to administration of the glucose bolus.

[3] = cAMP accumulation, HEK293 cells stably expressing mutant human GPR119, read-out: EC50
[4] = the 19th table, unit inferred, read-out: EC 50

| SMILES | EC50 [1, 3] [nM] | EC50 [1, 4] [nM] | other results |
| --- | --- | --- | --- |
| CC(C)OC(=O)N1CCC(ON=C2CCN(c3cc(F)c([C@@H](C)N)cc3F)CC2)CC1 [Example 8-1, 4-{1-[4-((R)-1-Amino-ethyl)-2,5-difluoro-phenyl]-piperidin-4-ylideneaminooxy}-piperidine-1-carboxylic acid isopropyl ester] | 538 | – | reduction of glucose excursion compared to vehicle (glucose area under the curve) [2]: 70% |
| CNC(=O)c1cc(F)c(N2CCC(=NOC3CCN(C(=O)OC(C)C)CC3)CC2)cc1F [Example 2-35] | – | – | EC50 ([1]; EC50, cAMP accumulation, HEK293 cells stably expressing mutant human GPR119): 34 nM; reduction of glucose excursion compared to vehicle (glucose area under the curve) [2]: 75% |
| CC(C)OC(=O)N1CCC(ON=C2CCN(c3cc(F)c(Cn4cnc5cccnc54)cc3F)CC2)CC1 [Example 14-6] | 647 | – | – |
| CS(=O)(=O)c1ccc(N2CCC(=NOC3CCN(C(=O)OCCN4CCCCC4)CC3)CC2)c(F)c1 [Example 64-28] | – | – | EC50 ([1]; the 33rd table, read-out: EC50): > 10000 nM |
| CC(C)OC(=O)N1CCC(ON=C2CCN(c3cc(F)c(CC(=O)N4CCCCC4CN4CCOCC4)cc3F)CC2)CC1 (stereo not drawn) [Example 75-31] | – | – | EC50 ([1]; the 43rd table, compounds 75-1 to 75-38, read-out: EC50): 192 nM |
| CCc1cnc(N2CCC(ON=C3CCN(c4cc(F)c(C(=O)NCC5CCCNC5)cc4F)CC3)CC2)nc1 (stereo not drawn) [Example 29-93] | – | 56 | – |
| Cc1cnn(Cc2cnc(N3CCC(=NOC4CCN(C(=O)OC(C)C)CC4)CC3)c(F)c2)c1 [Example 54-1, 4-[3′-Fluoro-5′-(4-methyl-pyrazol-1-ylmethyl)-2,3,5,6-tetrahydro-[1,2]bipyridinyl-4-ylideneaminooxy]-piperidine-1-carboxylic acid isopropyl ester] | – | – | EC50 ([1]; the 30th table, read-out: EC50): 445 nM |
| CN(C)CCCOC(=O)N1CCC(ON=C2CCN(c3ccc(S(C)(=O)=O)cc3F)CC2)CC1 [Example 64-15] | – | – | EC50 ([1]; the 33rd table, read-out: EC50): > 10000 nM |
| CC(C)OC(=O)N1CCC(ON=C2CCN(c3cc(F)c(Br)cc3F)CC2)CC1 [Example 2-40] | 2000 | – | – |
| CCc1cnc(N2CCC(ON=C3CCN(c4cc(F)c(C(=O)NCC[C@H](N)C(=O)O)cc4F)CC3)CC2)nc1 [Example 29-117] | – | 745 | – |
| CC(C)OC(=O)N1CCC(ON=C2CCN(c3cc(F)c(Cn4cccc4)cc3F)CC2)CC1 [Example 14-14] | 467 | – | – |
| CCc1cnc(N2CCC(ON=C3CCN(c4cc(F)c(C(=O)N5CCC(N)CC5)cc4F)CC3)CC2)nc1 [Example 29-126] | – | 469 | – |
| CCc1cnc(N2CCC(ON=C3CCN(c4cc(F)c(C(=O)N5CCCNCC5)cc4F)CC3)CC2)nc1 [Example 29-114] | – | 392 | – |
